Measurements as given in paper PMC11528125, “Characterization of O-methyltransferases in the biosynthesis of phenylphenalenone phytoalexins based on the telomere-to-telomere gapless genome of Musella lasiocarpa” (Horticulture Research, 2024).
Each block holds one molecule with its values, some of them ahead of it.

Experiments:
Assay in all cases: MTase-Glo methyltransferase assay (SAH luminescence), Michaelis-Menten fit
Format in all cases: biochemical, Musella lasiocarpa
[1] = system: T1, Ml01G0494; conditions: 2 mM SAM, 45°C, 30 min; Tris-HCl; read-out: apparent Km
T1 construct: MBP fusion from pMAL-c4x (EcoRI/SalI), E. coli BL21 (DE3), purified

[2] = system: T2, Ml08G0855; conditions: 2 mM SAM, 45°C, 30 min; Tris-HCl; read-out: apparent Km
T2 construct: MBP fusion from pMAL-c4x (EcoRI/SalI), E. coli BL21 (DE3), purified

[3] = substrate: O=C1C(O)=Cc2cccc3ccc(-c4ccccc4)c1c23; conditions: 2 mM SAM, 45°C, 30 min, Tris-HCl
From the text: (§1) MTase-Glo methyltransferase assay (SAH luminescence), Michaelis-Menten fit on Ml04G2958 | The apparent Kcat/Km values of Ml01G0494, Ml04G2958, and Ml08G0855 for MLT3 | the apparent Kcat/Km values of Ml01G0494, Ml04G2958, and Ml08G0855 for MLT4

[4] = substrate: O=C1C(O)=Cc2cccc3ccc(-c4ccc(O)cc4)c1c23; conditions: 2 mM SAM, 45°C, 30 min, Tris-HCl
From the text: as §1

Km [1]: 971 µM
Km [2]: 81.9 µM
Molecule: O=C1C(O)=Cc2c(-c3ccc(O)c(O)c3)ccc3cccc1c23 [MLT9]

Km [1]: 60.4 ± 16.6 µM
Km [2]: 111 ± 27.4 µM
Molecule: O=C1C(O)=Cc2cccc3ccc(-c4ccc(O)cc4)c1c23 [MLT3]

Km [1]: 8.51 ± 0.13 µM
Km [2]: 37.3 ± 10.7 µM
Molecule: O=C1C(O)=Cc2cccc3ccc(-c4ccccc4)c1c23 [MLT4]

B1: Ml04G2958 (Musella lasiocarpa) (protein)
chain: MAGPHVVDAVGEHSEPYKSASRAHHHHYRHHSSLPLRTMGSVRAAAAALQPSPEEDEEACLQAGQLVSSSVLPMTLKAAIELQLLEIIVGAGPGARLSPADVAAQLPTTNPQAAAMVDRILRLLAAYGIVGCSVEAGPDGRPCRKYGAAPVCKYLTRNEDGVSFAALSLMNQDKVLMESWYHLKDAVLEGGIPFNKAYGMTAFEYHGTDPRFNKVFNEGMRSHSIIITKKLLQVYRGFDDVKVLVDVGGGTGATLHMITSTHPHILGINYDLPHVISDAPPLPGVEHVSGDMFESVPGGDAILMKWILHDWSDEHCAKILKNCWKALPEKGKLIAVECVLPVVPEPSLRTQSVCHVDLIMLAHNPGGKERTEMEFEELAKQAGFSGFKPTYVYASTWALEFTK
notes: MBP fusion from pMAL-c4x (EcoRI/SalI), E. coli BL21 (DE3), purified
Km [3]: 5.30 ± 0.68 µM
kcat [3]: 0.00033 s⁻¹
Km [4]: 69.94 ± 14.71 µM
kcat [4]: 0.0005 s⁻¹
